Measurements from patent US12447153B2, “HER2 mutation inhibitors” (Array BioPharma Inc., priority 2021, dated 2025).

What was measured:
BCRP = BCRP (Homo sapiens (Human), UniProt Q9UNQ0); test: BCRP MDCKII efflux assay (Assay 7); format: in vitro ADME; conditions: dog; efflux ratio Papp(B-A)/Papp(A-B), BCRP MDCKII cells; read-out: Assay 7 Pe Ratio
Experimental: Assay conditions included with and without the BCRP-specific inhibitor, KO143, at a concentration of 0.3 μM to ascertain the contribution of BCRP to the efflux value of the test compound.
Final organic concentration in the assay was 1%.

EGFR wild type (EGFR WT) = EGFR wild type (EGFR WT) (Homo sapiens (Human), UniProt P00533); test: Cellular Phosphorylation Assay, Assay 5 (EGF-stimulated EGFR phosphorylation, NIH 3T3 cells); format: cell-based
MDR1 (P-gp) = MDR1 (P-gp) (Homo sapiens (Human), UniProt P08183); test: in vitro; conditions: pig, LLC-PK1
Experimental: Both LLC-PK1 and MDR1 transfected LLC-PK1 cells were cultured and plated according to manufacturer's recommendations with the exception that the passage media contained only 2% fetal bovine serum so as to extend passage time out to seven days.
Both positive and negative controls were used to assess functionality of P-gp or BCRP efflux in the assays. Stock solutions for assay controls and the test article were prepared in DMSO for final test concentrations of 10 μM and 1 μM, respectively. Final organic concentration in the assay was 1%. All dosing solutions contained 10 μM lucifer yellow to monitor LLC PK1 or MDCKII cell monolayer integrity.
For the apical to basolateral determination (A to B), 75 μL of the test article in transport buffer were added to the apical side of the individual transwells and 250 μL of basolateral media, without compound or lucifer yellow, were added to each well. For the basolateral to apical determination (B to A), 250 μL of test article in transport buffer were added to each well and 75 μL transport buffer, without compound or lucifer yellow, were added to each transwell. All tests were performed in triplicate, and each compound was tested for both apical to basolateral and basolateral to apical transport. The plates were incubated for 2 hours on a Lab-Line Instruments Titer Orbital Shaker (VWR, West Chester, PA) at 50 rpm and 37° C. with 5% CO2. All culture plates were removed from the incubator, 50 μL of media were removed from the apical and basolateral portion of each well, and added to 150 μL of 1 μM labetalol in 2:1 acetonitrile (ACN): H2O, v/v.
The plates were read using a Molecular Devices (Sunnyvale, CA) Gemini Fluorometer to evaluate the lucifer yellow concentrations at excitation/emission wavelengths of 425/535 nm. These values were accepted when found to be below 2% for apical to basolateral and 5% basolateral to apical flux across the MDR1-transfected LLC-PK1 or BCRP-transfected MDCKII cell monolayers. The plates were sealed, and the contents of each well analyzed by LC MS/MS. The compound concentrations were determined from the ratio of the peak areas of the compound to the internal standard (labetalol) in comparison to the dosing solution.
The LC-MS/MS system was comprised of an HTS-PAL autosampler (Leap Technologies, Carrboro, NC), an HP1200 HPLC (Agilent, Palo Alto, CA), and a MDS Sciex 4000 Q Trap system (Applied Biosystems, Foster City, CA). […] The total run time, including re-equilibration, for a single injection was 1.2 minutes. Mass spectrometric detection of the analytes was accomplished using the ion spray positive mode. Analyte responses were measured by multiple reaction monitoring (MRM) of transitions unique to each compound (the protonated precursor ion and selected product ions for each test article and m/z 329 to m/z 162 for labetalol, the internal standard).
An efflux ratio is calculated from the mean apical to basolateral (A-B) Papp data and basolateral to apical (B-A) Papp data: Efflux ratio=Papp(B−A)/Papp(A−B)

ErbB2 WT = ErbB2 WT (Homo sapiens (Human), UniProt P04626); test: ErbB Enzyme Assay (HTRF KinEASE-TK), Assay 2; format: biochemical
EGFR = EGFR (Homo sapiens (Human), UniProt P00533); test: ErbB Enzyme Assay (HTRF KinEASE-TK), Assay 3; format: biochemical
[1] = biological target: ErbB2 with Exon 20 YVMA insertion (HER2-YVMA) (Homo sapiens (Human), UniProt P04626, INS775YVMA); test: Cellular Phosphorylation Assay, Assay 4 (constitutive ErbB2 phosphorylation, NIH 3T3 cells); format: cell-based
[2] = EGF-stimulated EGFR WT phosphorylation
[3] = cellular EGFR WT phosphorylation, EGF-stimulated
[4] = cellular ErbB2 YVMA phosphorylation

Chain of ErbB2 with Exon 20 YVMA insertion (HER2-YVMA) (P04626 other isoform, or with tags, fused parts or gaps ins YVMA behind 775): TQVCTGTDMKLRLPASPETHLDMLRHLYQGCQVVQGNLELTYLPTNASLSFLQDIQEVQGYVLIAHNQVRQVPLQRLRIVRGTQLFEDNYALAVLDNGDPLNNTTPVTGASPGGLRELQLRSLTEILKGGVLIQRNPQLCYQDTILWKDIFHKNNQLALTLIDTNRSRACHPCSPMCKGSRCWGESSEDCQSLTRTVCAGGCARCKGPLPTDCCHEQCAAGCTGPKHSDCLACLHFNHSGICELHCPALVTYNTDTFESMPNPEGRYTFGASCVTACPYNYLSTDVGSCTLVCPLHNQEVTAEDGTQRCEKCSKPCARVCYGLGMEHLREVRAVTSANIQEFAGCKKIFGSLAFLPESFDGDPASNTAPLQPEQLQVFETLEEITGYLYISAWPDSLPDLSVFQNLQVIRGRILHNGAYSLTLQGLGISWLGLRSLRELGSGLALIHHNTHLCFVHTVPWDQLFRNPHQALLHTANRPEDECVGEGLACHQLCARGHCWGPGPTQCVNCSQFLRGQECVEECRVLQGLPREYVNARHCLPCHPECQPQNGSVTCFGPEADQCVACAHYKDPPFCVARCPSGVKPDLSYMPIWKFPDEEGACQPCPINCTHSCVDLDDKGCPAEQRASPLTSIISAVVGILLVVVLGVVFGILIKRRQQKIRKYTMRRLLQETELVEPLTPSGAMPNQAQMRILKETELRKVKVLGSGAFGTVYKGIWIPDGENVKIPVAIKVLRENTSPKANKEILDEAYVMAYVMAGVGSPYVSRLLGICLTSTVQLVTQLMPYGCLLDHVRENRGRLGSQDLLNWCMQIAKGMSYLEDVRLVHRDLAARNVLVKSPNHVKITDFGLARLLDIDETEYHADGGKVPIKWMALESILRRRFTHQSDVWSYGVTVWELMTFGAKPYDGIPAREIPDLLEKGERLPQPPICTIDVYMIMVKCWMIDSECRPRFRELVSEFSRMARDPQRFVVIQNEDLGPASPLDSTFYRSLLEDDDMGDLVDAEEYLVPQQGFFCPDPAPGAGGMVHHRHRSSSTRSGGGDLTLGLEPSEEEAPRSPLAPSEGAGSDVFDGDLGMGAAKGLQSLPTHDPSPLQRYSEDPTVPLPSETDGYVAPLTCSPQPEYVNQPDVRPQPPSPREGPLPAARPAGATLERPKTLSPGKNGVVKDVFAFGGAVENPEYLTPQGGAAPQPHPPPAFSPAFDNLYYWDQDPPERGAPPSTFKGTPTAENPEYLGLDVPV
Chain of ErbB2 WT (P04626 23-1255): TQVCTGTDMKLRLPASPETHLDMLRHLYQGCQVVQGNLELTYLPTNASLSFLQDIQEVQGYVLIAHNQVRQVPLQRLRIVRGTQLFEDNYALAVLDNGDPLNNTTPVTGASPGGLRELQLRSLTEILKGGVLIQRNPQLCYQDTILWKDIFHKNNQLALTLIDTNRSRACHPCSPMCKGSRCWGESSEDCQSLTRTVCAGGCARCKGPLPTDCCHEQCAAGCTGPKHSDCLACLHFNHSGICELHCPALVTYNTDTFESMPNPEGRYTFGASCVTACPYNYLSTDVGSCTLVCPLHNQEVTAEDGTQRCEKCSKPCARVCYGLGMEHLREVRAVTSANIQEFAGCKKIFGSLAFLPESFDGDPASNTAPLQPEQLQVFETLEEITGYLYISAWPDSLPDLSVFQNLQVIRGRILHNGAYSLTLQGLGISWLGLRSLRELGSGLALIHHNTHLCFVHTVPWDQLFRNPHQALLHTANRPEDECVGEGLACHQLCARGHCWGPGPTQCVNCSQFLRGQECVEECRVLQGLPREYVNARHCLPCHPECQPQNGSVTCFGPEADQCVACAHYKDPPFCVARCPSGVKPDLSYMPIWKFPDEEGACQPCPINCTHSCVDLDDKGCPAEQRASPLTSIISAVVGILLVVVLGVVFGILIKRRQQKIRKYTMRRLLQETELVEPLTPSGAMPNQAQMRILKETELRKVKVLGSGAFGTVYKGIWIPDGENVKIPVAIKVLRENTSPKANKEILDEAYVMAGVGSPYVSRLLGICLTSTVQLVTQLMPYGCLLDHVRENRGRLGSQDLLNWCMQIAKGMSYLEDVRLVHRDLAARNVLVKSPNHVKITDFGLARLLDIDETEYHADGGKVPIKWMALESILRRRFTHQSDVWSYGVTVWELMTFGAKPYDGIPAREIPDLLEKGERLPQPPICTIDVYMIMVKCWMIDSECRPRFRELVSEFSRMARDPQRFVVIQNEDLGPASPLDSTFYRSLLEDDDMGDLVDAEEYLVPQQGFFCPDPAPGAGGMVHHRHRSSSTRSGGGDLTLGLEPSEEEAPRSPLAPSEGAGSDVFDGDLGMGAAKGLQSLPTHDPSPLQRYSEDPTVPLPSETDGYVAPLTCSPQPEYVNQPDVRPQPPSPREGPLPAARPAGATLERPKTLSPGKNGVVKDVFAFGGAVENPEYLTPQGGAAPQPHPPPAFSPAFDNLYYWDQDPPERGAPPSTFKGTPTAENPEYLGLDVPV
Chain of MDR1 (P-gp) (P08183 whole entry): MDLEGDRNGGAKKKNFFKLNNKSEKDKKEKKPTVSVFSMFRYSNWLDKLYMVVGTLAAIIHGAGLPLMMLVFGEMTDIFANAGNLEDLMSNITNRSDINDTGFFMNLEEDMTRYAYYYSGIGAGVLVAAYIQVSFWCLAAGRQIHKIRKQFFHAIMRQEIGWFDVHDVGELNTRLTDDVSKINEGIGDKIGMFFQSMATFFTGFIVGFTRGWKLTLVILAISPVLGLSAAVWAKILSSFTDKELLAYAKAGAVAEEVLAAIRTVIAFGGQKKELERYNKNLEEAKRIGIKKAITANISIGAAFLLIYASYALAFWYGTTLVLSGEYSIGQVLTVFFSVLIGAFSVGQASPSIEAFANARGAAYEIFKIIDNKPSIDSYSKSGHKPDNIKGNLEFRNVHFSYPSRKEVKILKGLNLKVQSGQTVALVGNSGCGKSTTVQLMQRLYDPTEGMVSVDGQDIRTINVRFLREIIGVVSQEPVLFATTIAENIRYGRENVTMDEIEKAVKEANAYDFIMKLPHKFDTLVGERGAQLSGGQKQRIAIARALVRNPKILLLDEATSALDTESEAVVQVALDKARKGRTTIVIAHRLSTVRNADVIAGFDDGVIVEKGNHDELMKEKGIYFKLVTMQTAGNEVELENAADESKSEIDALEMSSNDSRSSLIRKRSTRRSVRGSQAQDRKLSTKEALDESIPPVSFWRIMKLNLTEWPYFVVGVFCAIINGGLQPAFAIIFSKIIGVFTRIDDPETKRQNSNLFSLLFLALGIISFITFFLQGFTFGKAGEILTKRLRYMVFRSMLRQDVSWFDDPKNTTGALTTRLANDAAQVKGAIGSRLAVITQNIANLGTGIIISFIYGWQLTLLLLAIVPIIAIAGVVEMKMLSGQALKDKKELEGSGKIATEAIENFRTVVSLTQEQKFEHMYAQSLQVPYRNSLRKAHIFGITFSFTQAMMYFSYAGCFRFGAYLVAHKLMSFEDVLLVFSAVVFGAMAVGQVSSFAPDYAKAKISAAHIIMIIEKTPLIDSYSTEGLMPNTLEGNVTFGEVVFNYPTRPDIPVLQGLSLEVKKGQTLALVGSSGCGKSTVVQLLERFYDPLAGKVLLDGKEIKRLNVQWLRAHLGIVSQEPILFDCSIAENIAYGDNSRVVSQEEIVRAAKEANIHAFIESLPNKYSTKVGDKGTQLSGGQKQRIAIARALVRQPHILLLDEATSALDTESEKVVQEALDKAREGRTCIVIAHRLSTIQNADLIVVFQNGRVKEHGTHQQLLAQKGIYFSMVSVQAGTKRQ
Chain of EGFR (P00533 25-1210): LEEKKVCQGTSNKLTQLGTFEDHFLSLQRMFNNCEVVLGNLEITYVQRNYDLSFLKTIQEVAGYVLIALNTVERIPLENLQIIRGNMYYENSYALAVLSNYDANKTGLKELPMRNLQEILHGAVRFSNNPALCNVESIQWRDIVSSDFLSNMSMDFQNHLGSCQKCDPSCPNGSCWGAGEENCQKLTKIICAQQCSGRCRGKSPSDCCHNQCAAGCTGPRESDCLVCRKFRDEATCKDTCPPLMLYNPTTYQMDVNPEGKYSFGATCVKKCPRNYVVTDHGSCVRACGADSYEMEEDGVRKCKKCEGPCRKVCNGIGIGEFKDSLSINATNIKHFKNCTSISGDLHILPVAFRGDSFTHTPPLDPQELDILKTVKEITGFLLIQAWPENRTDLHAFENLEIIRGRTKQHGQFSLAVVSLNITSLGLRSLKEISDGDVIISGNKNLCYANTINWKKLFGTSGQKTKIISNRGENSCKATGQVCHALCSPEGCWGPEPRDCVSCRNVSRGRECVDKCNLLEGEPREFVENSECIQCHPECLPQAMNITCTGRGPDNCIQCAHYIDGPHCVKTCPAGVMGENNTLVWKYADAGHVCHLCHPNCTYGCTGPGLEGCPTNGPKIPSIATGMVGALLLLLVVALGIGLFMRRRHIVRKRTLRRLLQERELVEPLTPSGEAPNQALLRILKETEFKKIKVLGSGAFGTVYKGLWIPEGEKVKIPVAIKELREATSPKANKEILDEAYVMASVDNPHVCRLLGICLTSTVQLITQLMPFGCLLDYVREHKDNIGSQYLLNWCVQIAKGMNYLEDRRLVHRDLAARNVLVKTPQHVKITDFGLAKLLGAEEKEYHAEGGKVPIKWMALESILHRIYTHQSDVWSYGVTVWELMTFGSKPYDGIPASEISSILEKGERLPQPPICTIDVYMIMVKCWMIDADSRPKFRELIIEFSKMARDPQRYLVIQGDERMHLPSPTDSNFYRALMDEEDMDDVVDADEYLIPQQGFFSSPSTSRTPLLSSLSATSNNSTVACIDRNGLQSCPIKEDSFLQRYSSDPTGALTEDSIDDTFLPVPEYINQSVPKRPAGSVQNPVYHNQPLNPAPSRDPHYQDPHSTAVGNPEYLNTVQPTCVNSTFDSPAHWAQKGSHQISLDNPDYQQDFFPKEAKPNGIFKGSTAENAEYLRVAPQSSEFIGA

C=CC(=O)N1C[C@H]2CC[C@@H]1CN2c1ccc2ncnc(Nc3ccc(Oc4ccn5ncnc5c4)c(C)c3F)c2n1 [Example 175, 1-((1R,4R)-5-(4-((4-([1,2,4]triazolo[1,5-a]pyridin-7-yloxy)-2-fluoro-3-methylphenyl)amino)pyrido[3,2-d]pyrimidin-6-yl)-2,5-diazabicyclo[2.2.2]octan-2-yl)prop-2-en-1-one]
efflux ratio at 2 h, 1 µM (BCRP): 4.8 | IC50 (EGFR wild type (EGFR WT); [2]): 2410 nM | efflux ratio at 2 h, 1 µM (MDR1 (P-gp)): 3.3 | IC50 (ErbB2 WT; ErbB2 WT enzyme): 172 nM | IC50 (EGFR; EGFR enzyme): 5350 nM | IC50 ([1]; ErbB2 YVMA phosphorylation): 22.2 nM

C=CC(=O)N1[C@@H]2CC[C@H]1[C@H](c1ccc3ncnc(Nc4cc(C)c(Oc5ccc6c(c5)ncn6C)cc4F)c3n1)C2 [Example 393]
efflux ratio at 2 h, 1 µM (BCRP): 2.2 | IC50 (EGFR wild type (EGFR WT); [3]): ≥ 5000 nM | efflux ratio at 2 h, 1 µM (MDR1 (P-gp)): 1.8 | IC50 (ErbB2 WT; ErbB2 WT enzyme assay): 13.4 nM | IC50 (EGFR; EGFR enzyme assay): 715 nM | IC50 [1, 4]: 15.4 nM

C=CC(=O)N1CCCN(c2ccc3ncnc(Nc4ccc(Oc5ccc6c(c5)ncn6C)c(C)c4F)c3n2)CC1(C)C [Example 69, 1-(4-(4-((2-fluoro-3-methyl-4-((1-methyl-1H-benzo[d]imidazol-5-yl)oxy)phenyl)amino)pyrido[3,2-d]pyrimidin-6-yl)-2,2-dimethyl-1,4-diazepan-1-yl)prop-2-en-1-one]
efflux ratio at 2 h, 1 µM (BCRP): 2.4 | IC50 (EGFR wild type (EGFR WT); [2]): ≥ 5000 nM | efflux ratio at 2 h, 1 µM (MDR1 (P-gp)): 3 | IC50 (ErbB2 WT; ErbB2 WT enzyme): 141 nM | IC50 (EGFR; EGFR enzyme): ≥ 10000 nM | IC50 ([1]; ErbB2 YVMA phosphorylation): 19.9 nM

C=CC(=O)N1CC[C@@H]2C[C@H](c3ccc4ncnc(Nc5cc(C)c(Oc6ccn7ncnc7c6)cc5F)c4n3)C[C@@H]21 (single isomer, unassigned) [Example 225]
efflux ratio at 2 h, 1 µM (BCRP): 2 | IC50 (EGFR wild type (EGFR WT); [2]): 768 nM | efflux ratio at 2 h, 1 µM (MDR1 (P-gp)): 1.2 | IC50 (ErbB2 WT; ErbB2 WT enzyme): 26.5 nM | IC50 (EGFR; EGFR enzyme): 422 nM | IC50 ([1]; ErbB2 YVMA phosphorylation): 8.4 nM

C=CC(=O)N1[C@@H]2CC[C@H]1[C@H](c1ccc3ncnc(Nc4ccc(Oc5ccc6c(c5)ncn6C)c(C)c4F)c3n1)C2 [Example 394]
efflux ratio at 2 h, 1 µM (BCRP): 1.8 | IC50 (EGFR wild type (EGFR WT); [3]): ≥ 5000 nM | efflux ratio at 2 h, 1 µM (MDR1 (P-gp)): 2.6 | IC50 (ErbB2 WT; ErbB2 WT enzyme assay): 11.4 nM | IC50 (EGFR; EGFR enzyme assay): 252 nM | IC50 [1, 4]: 10.7 nM

C=CC(=O)N1CCC(Sc2ccc3ncnc(Nc4ccc(Oc5ccc6c(c5)ncn6C)c(C)c4F)c3n2)CC1 [Example 28, 1-(4-((4-((2-fluoro-3-methyl-4-((1-methyl-1H-benzo[d]imidazol-5-yl)oxy)phenyl)amino)pyrido[3,2-d]pyrimidin-6-yl)thio)piperidin-1-yl)prop-2-en-1-one]
efflux ratio at 2 h, 1 µM (BCRP): 5.2 | IC50 (EGFR wild type (EGFR WT); [2]): ≥ 5000 nM | efflux ratio at 2 h, 1 µM (MDR1 (P-gp)): 2 | IC50 (ErbB2 WT; ErbB2 WT enzyme): 275 nM | IC50 (EGFR; EGFR enzyme): ≥ 10000 nM | IC50 ([1]; ErbB2 YVMA phosphorylation): 26.4 nM

C=CC(=O)N1CCN(c2ccc3ncnc(Nc4ccc(Oc5cnc6c(c5)ncn6C)c(Cl)c4F)c3n2)CC1(C)C [Example 239, 1-(4-(4-((3-chloro-2-fluoro-4-((3-methyl-3H-imidazo[4,5-b]pyridin-6-yl)oxy)phenyl)amino)pyrido[3,2-d]pyrimidin-6-yl)-2,2-dimethylpiperazin-1-yl)prop-2-en-1-one]
efflux ratio at 2 h, 1 µM (BCRP): 5.2 | IC50 (EGFR wild type (EGFR WT); [2]): 2250 nM | efflux ratio at 2 h, 1 µM (MDR1 (P-gp)): 1.8 | IC50 (ErbB2 WT; ErbB2 WT enzyme): 36.7 nM | IC50 (EGFR; EGFR enzyme): 955 nM | IC50 ([1]; ErbB2 YVMA phosphorylation): 24.3 nM

C=CC(=O)N1CCN(c2ccc3ncnc(Nc4cc(C)c(Oc5ccn6ncnc6c5)cc4F)c3n2)CC12CC2 [Example 337]
efflux ratio at 2 h, 1 µM (BCRP): 3.6 | IC50 (EGFR wild type (EGFR WT); [3]): 417 nM | efflux ratio at 2 h, 1 µM (MDR1 (P-gp)): 1.4 | IC50 (ErbB2 WT; ErbB2 WT enzyme assay): 13 nM | IC50 (EGFR; EGFR enzyme assay): 362 nM | IC50 [1, 4]: 8.2 nM

C=CC(=O)N1CCC12CN(c1ccc3ncnc(Nc4cc(C)c(Oc5ccn6ncnc6c5)cc4F)c3n1)C2 [Example 361]
efflux ratio at 2 h, 1 µM (BCRP): 2.3 | IC50 (EGFR wild type (EGFR WT); [3]): 760 nM | efflux ratio at 2 h, 1 µM (MDR1 (P-gp)): 2.9 | IC50 (ErbB2 WT; ErbB2 WT enzyme assay): 33.6 nM | IC50 (EGFR; EGFR enzyme assay): 908 nM | IC50 [1, 4]: 8 nM

C=CC(=O)N1CCN(c2ccc3ncnc(Nc4cc(C)c(Oc5ccc6c(c5)ncn6C)cc4F)c3n2)C[C@@H]1C1CC1 [Example 252]
efflux ratio at 2 h, 1 µM (BCRP): 2.9 | IC50 (EGFR wild type (EGFR WT); [3]): ≥ 5000 nM | efflux ratio at 2 h, 1 µM (MDR1 (P-gp)): 1 | IC50 (ErbB2 WT; ErbB2 WT enzyme assay): 170 nM | IC50 (EGFR; EGFR enzyme assay): 4580 nM | IC50 [1, 4]: 21.1 nM

C=CC(=O)N1CCC(Oc2ccc3ncnc(Nc4ccc(Oc5ccc6cn(C)nc6c5)c(Cl)c4F)c3n2)CC1 [Example 9, 1-(4-((4-((3-chloro-2-fluoro-4-((2-methyl-2H-indazol-6-yl)oxy)phenyl)amino)pyrido[3,2-d]pyrimidin-6-yl)oxy)piperidin-1-yl)prop-2-en-1-one]
efflux ratio at 2 h, 1 µM (BCRP): 2.4 | IC50 (EGFR wild type (EGFR WT); [2]): 840 nM | efflux ratio at 2 h, 1 µM (MDR1 (P-gp)): 1.7 | IC50 (ErbB2 WT; ErbB2 WT enzyme): 977 nM | IC50 (EGFR; EGFR enzyme): ≥ 10000 nM | IC50 ([1]; ErbB2 YVMA phosphorylation): 66 nM

C=CC(=O)N1[C@H]2CC[C@@H]1[C@@H](c1ccc3ncnc(Nc4ccc(Oc5ccn6ncnc6c5)c(C)c4F)c3n1)C2 (single isomer, unassigned) [Example 229]
efflux ratio at 2 h, 1 µM (BCRP): 3 | IC50 (EGFR wild type (EGFR WT); [2]): ≥ 5000 nM | efflux ratio at 2 h, 1 µM (MDR1 (P-gp)): 0.7 | IC50 (ErbB2 WT; ErbB2 WT enzyme): 16.7 nM | IC50 (EGFR; EGFR enzyme): 380 nM | IC50 ([1]; ErbB2 YVMA phosphorylation): 29.9 nM

C=CC(=O)N1C[C@H]2C[C@H](c3ccc4ncnc(Nc5cc(C)c(Oc6ccc7c(c6)ncn7C)cc5F)c4n3)C[C@H]2C1 [Example 136, 1-((3aR,5s,6aS)-5-(4-((2-fluoro-5-methyl-4-((1-methyl-1H-benzo[d]imidazol-5-yl)oxy)phenyl)amino)pyrido[3,2-d]pyrimidin-6-yl)hexahydrocyclopenta[c]pyrrol-2(1H)-yl)prop-2-en-1-one]
efflux ratio at 2 h, 1 µM (BCRP): 1.7 | IC50 (EGFR wild type (EGFR WT); [2]): ≥ 5000 nM | efflux ratio at 2 h, 1 µM (MDR1 (P-gp)): 1.7 | IC50 (ErbB2 WT; ErbB2 WT enzyme): 39.9 nM | IC50 (EGFR; EGFR enzyme): ≥ 10000 nM | IC50 ([1]; ErbB2 YVMA phosphorylation): 28.6 nM

C=CC(=O)N1CC2CC(C1)N2c1ccc2ncnc(Nc3ccc(Oc4cnc5c(c4)ncn5C)c(C)c3F)c2n1 [Example 435]
efflux ratio at 2 h, 1 µM (BCRP): 2 | IC50 (EGFR wild type (EGFR WT); [3]): 1140 nM | efflux ratio at 2 h, 1 µM (MDR1 (P-gp)): 1.5 | IC50 (ErbB2 WT; ErbB2 WT enzyme assay): 314 nM | IC50 (EGFR; EGFR enzyme assay): 587 nM | IC50 [1, 4]: 16 nM

C=CC(=O)N1CC2CC(C1)N2c1ccc2ncnc(Nc3cc(C)c(Oc4ccc5c(c4)ncn5C)cc3F)c2n1 [Example 334]
efflux ratio at 2 h, 1 µM (BCRP): 1.9 | IC50 (EGFR wild type (EGFR WT); [3]): 1080 nM | efflux ratio at 2 h, 1 µM (MDR1 (P-gp)): 3.7 | IC50 (ErbB2 WT; ErbB2 WT enzyme assay): 55.6 nM | IC50 (EGFR; EGFR enzyme assay): 430 nM | IC50 [1, 4]: 21.8 nM

C=CC(=O)N1CCC(c2ccc3ncnc(Nc4ccc(Oc5ccc6c(c5)ncn6C)c(C)c4F)c3n2)CC1(C)C (stereo not drawn) [Example 127, 1-(4-(4-((2-fluoro-3-methyl-4-((1-methyl-1H-benzo[d]imidazol-5-yl)oxy)phenyl)amino)pyrido[3,2-d]pyrimidin-6-yl)-2,2-dimethylpiperidin-1-yl)prop-2-en-1-one]
efflux ratio at 2 h, 1 µM (BCRP): 1.6 | IC50 (EGFR wild type (EGFR WT); [2]): ≥ 5000 nM | efflux ratio at 2 h, 1 µM (MDR1 (P-gp)): 1.2 | IC50 (ErbB2 WT; ErbB2 WT enzyme): 271 nM | IC50 (EGFR; EGFR enzyme): ≥ 10000 nM | IC50 ([1]; ErbB2 YVMA phosphorylation): 32.7 nM

C=CC(=O)N1C[C@@H]2C[C@H](c3ccc4ncnc(Nc5cc(C)c(Oc6ccc7c(c6)ncn7C)cc5F)c4n3)C[C@H]1C2 [Example 388]
efflux ratio at 2 h, 1 µM (BCRP): 1.8 | IC50 (EGFR wild type (EGFR WT); [3]): 1700 nM | efflux ratio at 2 h, 1 µM (MDR1 (P-gp)): 3.2 | IC50 (ErbB2 WT; ErbB2 WT enzyme assay): 40.7 nM | IC50 (EGFR; EGFR enzyme assay): 1800 nM | IC50 [1, 4]: 28.1 nM

C=CC(=O)N1C2CC1CN(c1ccc3ncnc(Nc4ccc(Oc5ccn6ncnc6c5)c(Cl)c4F)c3n1)C2 [Example 25, 1-(3-(4-((4-([1,2,4]triazolo[1,5-a]pyridin-7-yloxy)-3-chloro-2-fluorophenyl)amino)pyrido[3,2-d]pyrimidin-6-yl)-3,6-diazabicyclo[3.1.1]heptan-6-yl)prop-2-en-1-one]
efflux ratio at 2 h, 1 µM (BCRP): 6.8 | IC50 (EGFR wild type (EGFR WT); [2]): 324 nM | efflux ratio at 2 h, 1 µM (MDR1 (P-gp)): 2.2 | IC50 (ErbB2 WT; ErbB2 WT enzyme): 50.1 nM | IC50 (EGFR; EGFR enzyme): 558 nM | IC50 ([1]; ErbB2 YVMA phosphorylation): 12.1 nM
